Experimental data taken from patent publication US7902327B2, “Dendrimeric peptides, pharmaceutical compositions and methods of using the same” (New York University School of Medicine, priority 2007, dated 2011).
Converted amounts (≈) assume the structure as drawn. Where no end group is shown, it is not given here.

Columns and labels:
[1] = system: E. coli
[2] = system: Acinetobacter. baumannii (ATCC BAA-747)
[3] = system: multi-drug resistant strain S. aureus; conditions: salt not stated
[4] = system: E. coli RP437 biofilms; test: biofilm assay on stainless steel coupons with LIVE/DEAD staining; assay type: cell-based; conditions: for Biofilm coefficients: Dead cells / Biofilm coefficients: Live cells / Biofilm coefficients: Total biofilms: 24 hours
Experimental: The stainless steel (S.S.) coupons were polished using a fine 3M SandBlaster sandpaper, then autoclaved for sterilization. […] For all the treatments, duplicate coupons were tested. To analyze the E. coli biofilms using fluorescence microscopy, the biofilms were stained with […] bacterial viability kit (Cat# L7012, Invitrogen Corporation, California). Each S.S. coupon was washed gently by dipping vertically in 0.85% NaCl buffer three times (change to fresh buffer after each dipping). Then, they were soaked in 1 mL of 0.85% NaCl buffer containing 3 μl of staining component A and B (1:4) in the dark for 15 mins. Images were taken by AXIO Imager.M1 (Carl Zeiss, German). Five images were taken for each sample. Data were obtained and are presented in Table 3, below, as well as in FIG. 5.

Molecule	MIC50 E. coli [1]	MIC50 A. baumannii [2]	MIC50 S. aureus [3]	other results
NC(=O)CCNC(=O)[C@H](CCCCNC(=O)[C@H](CCCCNC(=O)[C@H](Cc1c[nH]c2ccccc12)NC(=O)[C@@H](N)Cc1c[nH]cn1)NC(=O)[C@H](Cc1c[nH]c2ccccc12)NC(=O)[C@@H](N)Cc1c[nH]cn1)NC(=O)[C@H](CCCCNC(=O)[C@H](Cc1c[nH]c2ccccc12)NC(=O)[C@@H](N)Cc1c[nH]cn1)NC(=O)[C@H](Cc1c[nH]c2ccccc12)NC(=O)[C@@H](N)Cc1c[nH]cn1 [Den(HW)4D]	30.6 µg/mL (≈ 17.3 µM)	82.7 µg/mL (≈ 46.8 µM)		
NCCCC[C@H](N)C(=O)N[C@@H](Cc1ccccc1)C(=O)NCCCC[C@H](NC(=O)[C@H](Cc1ccccc1)NC(=O)[C@@H](N)CCCCN)C(=O)NCCCC[C@H](NC(=O)[C@H](CCCCNC(=O)[C@H](Cc1ccccc1)NC(=O)[C@@H](N)CCCCN)NC(=O)[C@H](Cc1ccccc1)NC(=O)[C@@H](N)CCCCN)C(=O)NCCC(N)=O [Den(KF)4D]	77 µg/mL (≈ 48.9 µM)	175 µg/mL (≈ 111 µM)	145 µg/mL	
NCCCC[C@H](N)C(=O)N[C@@H](Cc1c[nH]c2ccccc12)C(=O)NCCCC[C@H](NC(=O)[C@H](Cc1c[nH]c2ccccc12)NC(=O)[C@@H](N)CCCCN)C(=O)NCCCC[C@H](NC(=O)[C@H](CCCCNC(=O)[C@H](Cc1c[nH]c2ccccc12)NC(=O)[C@@H](N)CCCCN)NC(=O)[C@H](Cc1c[nH]c2ccccc12)NC(=O)[C@@H](N)CCCCN)C(=O)NCCC(N)=O [Den(KW)4D]	30.6 µg/mL (≈ 17.7 µM)	52 µg/mL (≈ 30.1 µM)	23.3 µg/mL	
NCCCC[C@H](N)C(=O)N[C@@H](Cc1ccc(O)cc1)C(=O)NCCCC[C@H](NC(=O)[C@H](Cc1ccc(O)cc1)NC(=O)[C@@H](N)CCCCN)C(=O)NCCCC[C@H](NC(=O)[C@H](CCCCNC(=O)[C@H](Cc1ccc(O)cc1)NC(=O)[C@@H](N)CCCCN)NC(=O)[C@H](Cc1ccc(O)cc1)NC(=O)[C@@H](N)CCCCN)C(=O)NCCC(N)=O [Den(KY)4D]	84.4 µg/mL (≈ 51.5 µM)	360 µg/mL (≈ 220 µM)	240 µg/mL	
N=C(N)NCCC[C@H](N)C(=O)N[C@@H](Cc1ccc2ccccc2c1)C(=O)NCCCC[C@H](NC(=O)[C@H](Cc1ccc2ccccc2c1)NC(=O)[C@@H](N)CCCNC(=N)N)C(=O)NCCCC[C@H](NC(=O)[C@H](CCCCNC(=O)[C@H](Cc1ccc2ccccc2c1)NC(=O)[C@@H](N)CCCNC(=N)N)NC(=O)[C@H](Cc1ccc2ccccc2c1)NC(=O)[C@@H](N)CCCNC(=N)N)C(=O)NCCC(N)=O [Den(R-2Nal)4D]	21.5 µg/mL (≈ 11.4 µM)	51.3 µg/mL (≈ 27.2 µM)	36.0 µg/mL	
N=C(N)NCCC[C@H](N)C(=O)N[C@@H](Cc1ccccc1)C(=O)NCCCC[C@H](NC(=O)[C@H](Cc1ccccc1)NC(=O)[C@@H](N)CCCNC(=N)N)C(=O)NCCCC[C@H](NC(=O)[C@H](CCCCNC(=O)[C@H](Cc1ccccc1)NC(=O)[C@@H](N)CCCNC(=N)N)NC(=O)[C@H](Cc1ccccc1)NC(=O)[C@@H](N)CCCNC(=N)N)C(=O)NCCC(N)=O [Den(RF)4D]	30 µg/mL (≈ 17.8 µM)	160 µg/mL (≈ 94.9 µM)	180 µg/mL	
N=C(N)NCCC[C@H](N)C(=O)NC(Cc1c[nH]c2ccc(F)cc12)C(=O)NCCCC[C@H](NC(=O)C(Cc1c[nH]c2ccc(F)cc12)NC(=O)[C@@H](N)CCCNC(=N)N)C(=O)NCCCC[C@H](NC(=O)[C@H](CCCCNC(=O)C(Cc1c[nH]c2ccc(F)cc12)NC(=O)[C@@H](N)CCCNC(=N)N)NC(=O)C(Cc1c[nH]c2ccc(F)cc12)NC(=O)[C@@H](N)CCCNC(=N)N)C(=O)NCCC(N)=O (stereo partly shown) [Den(RW*)4D]	9.3 µg/mL (≈ 4.86 µM)	35 µg/mL (≈ 18.3 µM)	13 µg/mL	
RWRWRW-NH2 (C-terminus assumed) [Hexamer, reference compound]				Total biofilm formation compared with blank control (ANOVA) ([4]; 25 μg/mL): not significant; Biofilm coefficients: Dead cells ([4]; 25 μg/mL): 12.29% ± 2.00%; Biofilm coefficients: Live cells ([4]; 25 μg/mL): 5.18% ± 1.57%; Biofilm coefficients: Total biofilms ([4]; 25 μg/mL): 17.49% ± 2.20%; Total biofilm formation compared with blank control (ANOVA) ([4]; 50 μg/mL): significantly reduced; Biofilm coefficients: Dead cells ([4]; 50 μg/mL): 12.22% ± 2.02%; Biofilm coefficients: Live cells ([4]; 50 μg/mL): 4.25% ± 1.55%; Biofilm coefficients: Total biofilms ([4]; 50 μg/mL): 16.68% ± 2.11%
